# From a melting point compilation (Tetko et al.; mined from patent text by program, amines drawn as free bases though some values may be those of a salt)
row,SMILES,melting point [°C]
1,CCCCc1nn(-c2ccccc2C(F)(F)F)c(=O)n1Cc1ccc(-c2ccccc2S(=O)(=O)NC(=O)C2CC2)cc1,187 to 189
2,COc1ccc(C2c3[nH]c4ccccc4c3CCN2C(=O)C=Cc2ccc(C(F)(F)F)cc2)cc1 (configuration not stated),130 to 135
3,O=C(O)C1CCCc2c(-c3ccc(C(F)(F)F)cc3)noc2C1 (configuration not stated),222 to 225
4,O=C(O)C1CCCN1S(=O)(=O)c1ccc(-c2ccccc2)cc1 (configuration not stated),133 to 135
5,O=C(NCc1ccccc1)c1ccc(OC2SCC(O)C(O)C2O)cn1 (configuration not stated),89 to 91
6,Nc1c2c(nc3cc(F)ccc13)CCSC2,234 to 237
7,CCOC(=O)C(F)(F)c1ccc(NC(=O)c2ccc3c(c2)C(C)(C)CCC3(C)C)cc1,183
8,C=CC(=O)OCCCC#Cc1ccc(C(F)(F)Oc2ccc(OC(F)(F)c3ccc(C#CCCCOC(=O)C=C)cc3)c(C)c2)cc1,51
9,C=CCOc1ccc(C(=O)Oc2ccc3ccc(OC(=O)C(=C)C)cc3c2)cc1,85
10,Clc1cc(N2CCC3(CC2)OCCO3)nc(N2CCC3(CC2)OCCO3)n1,130 to 131
11,CC(C)(CC(O)(Cn1ccc(=O)c2ccccc21)C(F)(F)F)c1cc(F)ccc1OC(F)F (configuration not stated),150 to 155
12,Cc1c(C)c2c(c(C)c1O)CCC(C)(C(=O)N1CCC(c3ccc(N)cc3)CC1)O2 (configuration not stated),153 to 154
13,Cn1ccc(CNC(=O)c2ccnc(N3CCN(Cc4ccc(F)cc4)C3=O)c2)n1,79 to 81
14,OC1(CNCc2ccccc2)CCN(CCc2c[nH]c3ccc(-n4cnnc4)cc23)C1 (configuration not stated),> 56
15,CN1C(=O)CN(C(=O)CN)C(c2ccccc2)c2cc(Cl)ccc21 (configuration not stated),158 to 160
16,CC(=O)NCCCCNc1ccc(NCCN(C)C)c2c1C(=O)c1ccccc1C2=O,160 to 162
17,O=C(NCc1ccccc1)NOCC(O)CN1CCCCC1 (configuration not stated),100 to 101
18,CCOC(=O)c1cn(Cc2ccccc2)nc1NC(=O)N(C)C,125 to 126
19,O=[N+]([O-])c1cccc2nc3c(nc12)OCC1CCCCN31 (configuration not stated),205 to 207
20,N#Cc1ccc(N2CCCCC2)c2ccsc12,99 to 100
21,O=S(=O)(F)c1cc(S(=O)(=O)F)cc(S(=O)(=O)F)c1,166 to 168
22,Nc1nc(-c2ccc(Cl)cc2)c(CCO)c2ncnn12,207 to 208
23,COc1cc(N)ccc1-c1sc(C)nc1C,112 to 115
24,COc1cc2ccc(C(=O)C(C)C)cc2cc1OC,103 to 105
25,CCCCc1ncc(CNC(C)(Cc2ccccc2)C(=O)O)n1Cc1ccccc1Cl (configuration not stated),157 to 159

row,SMILES,melting point [°C]
1,CN(C)CCOc1cc(C(=O)N2CCC(N(C)CCc3ccccc3)CC2)ccc1-n1cncn1,83 to 85
2,CC(C)N(CCC12CC3CC(CC(C3)C1)C2)C(=O)NCCCc1ccncc1,132 to 134
3,COc1nc2cc([N+](=O)[O-])cc(Br)c2nc1OC,171 to 175
4,CCOC(=O)c1cnn(-c2cc(C)cc(C)c2)c1S(C)(=O)=O,120 to 122
5,CN(C)c1cccc(C(=O)COc2cccc(Cl)c2)c1,70 to 72
6,CC(C)n1nc(-c2c(-c3ccccc3)nn3ccc(C(=O)NCc4cccnc4)cc23)ccc1=O,192 to 193
7,CC(C)(C)OC(=O)N1CCN(c2cccc(-c3cnc4[nH]cc(C(=O)C5(C)CCCCC5)c4n3)c2)CC1,212 to 213
8,COc1cc(C)nc(C(=O)O)n1,140 to 141
9,O=C(O)C(=O)CC(=O)c1cccn1CCc1ccccc1,168 to 170
10,CCOC(=O)C(C(=O)CCCCC(C)C)C1c2ccccc2C(=O)N1c1ccc2ccc(Cl)nc2n1 (configuration not stated),136
11,"CC(C)CN1C(=O)C(NC(=O)c2cc3ccccc3[nH]2)N=C(N2CCCCCC2)c2ccccc21 (single isomer, unassigned; (-))",240 to 241
12,Cc1c(Br)c(O)c(Cc2ccc(C(C)C)cc2)c(C)c1N(Cc1ccccc1)C(=O)CC(C)(C)C,107 to 108
13,CC(C)(C)ON=C(C(=O)O)c1cccs1,106 to 107
14,CNC(=O)Nc1ccccc1,149 to 150
15,N=C(N[N+](=O)[O-])N1CCCC1,188 to 191
16,"CC1CCC(C(C)C)C(OC(=O)C(O)c2ccccc2)C1 (single isomer, unassigned; (-))",50 to 51
17,O=[N+]([O-])c1cccc2c(Cl)c(Cl)cnc12,123
18,CCOC(=O)Cc1cnc(C(C)(C)C)nc1O,98 to 102
19,COc1ccc(-c2cc3ccccc3[nH]2)cc1NCc1cccc([N+](=O)[O-])c1,160 to 162
20,COc1ccc(-c2cc(F)c(F)cc2-c2ccc(S(N)(=O)=O)cc2)cc1F,132 to 133
21,C#CCCCOc1cc(C=O)ccc1OC,73 to 74
22,CCC(=C(c1ccc(O)cc1)c1ccc(O)cc1)c1ccc(OCCO)c(OC)c1,158 to 159
23,O=C(Cc1ccc([N+](=O)[O-])cc1C(=O)O)Nc1cccc(/C=C/c2nc(C3CCC3)cs2)c1,233 to 235
24,COC(=O)c1cccc(NC(=O)c2ccccc2)c1O,105
25,COC(=O)CCCCCNC(=O)C[C@H]1O[C@H](c2cccc(OC)c2OC)c2cc(Cl)ccc2N(CC(C)(C)CO)C1=O,131 to 132

row,SMILES,melting point [°C]
1,CCCOc1c(I)cc(C(=O)CCC(=O)c2cc(OC)c(OC)c(OC)c2)cc1OC,120 to 121
2,NS(=O)(=O)CCCSc1ccc2nc(Cl)cn2n1,117 to 118
3,NC(=O)c1ccc(NC2CCOCC2)cc1,208 to 210
4,CCC(CC)(C(=O)N(C)C)n1cc(C)c(-c2ccccc2)n1,135 to 136
5,CCC(=O)C(O)(Cc1ccc(Cl)cc1Cl)c1cccnc1 (configuration not stated),145 to 146
6,Cc1c(NC(=O)CC(CSC(=O)[C@@H](C)NC(=O)C2CCCCC2)c2ccccc2)cccc1C(=O)O (some centres not stated),175 to 180
7,O=C1c2ccc(CCCCc3ccccc3)cc2CCN1OC1CCCCO1 (configuration not stated),62 to 64
8,CC(C)(O)Cn1c(CONC(=O)C2CC2)nc2c(N)nc3ccccc3c21,209 to 210
9,Cc1cc2c(cc1C1=NNC(=O)CC1)NC(=O)CO2,255 to 257
10,CCN(CC)CCNC(=O)N1CCCC(S(=O)(=O)c2ccc(OCCOC)cc2)C1 (configuration not stated),98 to 99
11,CC(C)(C)c1ccc(/C=N/OCCCOc2ccc(C(=O)O)c(NC(=O)c3cc(C(F)(F)F)cc(C(F)(F)F)c3)c2)cc1,158
12,O=C(O)CCc1cn(Cc2ccc(OCc3csc(-c4cccs4)n3)cc2)cc1-c1ccccc1,106 to 107
13,COc1ccc2c(c1)c(O)c(C#N)n2-c1ccccc1,182
14,Cc1cccc(OCC(=S)NCCNC(=S)Nc2ccccc2)c1C,112 to 113
15,C=CCN1C2CCC1C1CCC2N1C(c1ccc(C(=O)NC2CCCCC2)cc1)c1cccc(OC)c1 (configuration not stated),58 to 60
16,Cc1c(NCCCCNCC(O)COc2ccccc2)n(C)c(=O)n(C)c1=O (configuration not stated),148 to 150
17,CCCN(CCC)C(=O)C(CCC(=O)OC)NC(=O)C(C(=O)OC)=C1SC=CS1 (configuration not stated),115 to 117
18,O=C(N[C@@H](Cc1c[nH]c2ccccc12)C(=O)O)c1cccc(Cl)c1,160 to 161
19,O=C(Nc1cccc(Cl)c1)ONC1C=NC(c2ccccc2Cl)=c2cc(Cl)ccc2=N1 (configuration not stated),125 to 137
20,CN1CC(CCN2CCN(c3cccc(F)c3)CC2)OC1=O (configuration not stated),92 to 93
21,Cc1c(NC(=O)c2ccc(-c3ccc(F)cc3)cc2)ccc2cc(CN3CCCC3C3CCCCC3)cnc12 (configuration not stated),204 to 205
22,CCn1nc(C)c2c(Cl)c(CO)cnc21,119 to 121
23,Fc1ccc2c(C3CCN(CCCOc4ccccc4)CC3)noc2c1,78 to 80
24,Cc1[nH]cnc1CCNC(=NCCCOc1cccc(CN2CCCCC2)c1)NC(=O)c1ccccc1,118 to 120
25,CC(C)(C)c1ccc(C(O)(c2ccccc2)c2ncc[nH]2)cc1 (configuration not stated),166

row,SMILES,melting point [°C]
1,CCCc1nc2c(N)nc3cc(OCc4ccc(C(C)(C)C)cc4)ccc3c2n1CC(C)C,204 to 205
2,CC(C)Oc1cc(-n2c(=O)c(F)c(C(F)(F)F)n(C)c2=O)c(F)cc1Cl,104 to 107
3,CCc1cc([N+](=O)[O-])c(N)cc1Cl,100 to 101
4,CCOC(=O)N1Cc2cccc3c2c(cn3C)C1,76 to 78
5,O=C(NNS(=O)(=O)c1ccccc1)c1ccccc1Oc1ccccc1,149 to 150
6,COC(=O)c1c(N)cc(OC)c(OC)c1OC,94 to 96
7,Cc1oc(-c2ccccc2)nc1CCOc1ccc(C[C@H](NCc2ccc(F)cc2)C(=O)O)cc1,184 to 186
8,O=c1cc(O)cnn1Cc1ccccc1,48 to 55
9,O=S(=O)(NCCc1ccc(CN2CCCCC2)cc1)c1ccc(Br)cc1,109 to 110
10,O=c1[nH]c(=O)n(Cc2cccc(OCc3noc(-c4ccccc4)n3)c2)o1,133 to 134
11,CCc1nc2c(N)nc3cc(/C=C/C(=O)OC)ccc3c2n1CC(C)(C)O,238 to 240
12,O=C(O)C(Cc1ccccc1)Nc1cc(-c2ccc(Cc3ccccc3)cc2)ncn1 (configuration not stated),116 to 118
13,COC(=O)COc1ncccc1[N+](=O)[O-],61.5
14,Cc1c(C)c(N)c2c(c1C)C(c1ccc(C(C)C)cc1)CO2 (configuration not stated),122 to 123
15,O=C(c1nnc(-c2ccccc2)o1)N1CC(Oc2ccc(CN3CC4(COC4)C3)c(Cl)c2)C1,114 to 124
16,COc1ccc(-c2[nH]cnc2-c2cc(OC)c(Br)c(OC)c2)cc1N,160 to 162
17,Nc1ccc(-c2noc(-c3cnn4c(C(F)F)cc(-c5ccc(C(F)(F)F)c(OCC(F)(F)F)c5)nc34)n2)cn1,285
18,Fc1cc(Cl)c2nc(Cl)sc2c1N=C=S,80 to 81
19,Clc1ccc(C2=NNC(c3cccnc3)S2)cc1 (configuration not stated),106 to 108
20,CCCCc1oc2ccccc2c1-c1ncc(-c2ccc3cc(OC(Cc4ccccc4)C(=O)O)ccc3c2)o1 (configuration not stated),174 to 177
21,CCCOc1ccc(-c2ccc3c(c2)C=C(C(=O)Nc2ccc(C(O)c4ccccn4)cc2)CCS3(=O)=O)cc1 (configuration not stated),208 to 210
22,CCOC(=O)c1sc(-c2ccc(C#N)cc2)nc1COC(C)=O,127
